In patent US6355799B1, “Substituted benzene compounds, process for their preparation, and herbicidal and defoliant compositions containing them” (ISK Americas Incorporated, priority 1997, dated 2002):

What was measured:
Format in all cases: in vivo
[1] = tested on: redroot pigweed (Amaranthus retroflexus, AMARE); experiment: Pre-emerge test, greenhouse herbicide activity screening; details: rated 14 days after application, 0 = no damage, 100 = complete death
How it was run: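 Plants grown in 10 cm pots of sandy loam mix received acetone-dissolved compounds through a moving flat-fan nozzle. Doses ranged from 15 to 1000 g ai/ha. Pre-emerge pots were seeded one day earlier, post-emerge pots 8–21 days earlier. Fourteen days on, each pot was graded 0–100 for damage.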

[2] = tested on: barnyardgrass (Echinochloa crus-galli, ECHCG); experiment: as above; details: rated 14 days after application, 0 = no damage, 100 = complete death
How it was run: (§1)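 Compounds in acetone were track-sprayed at 15-1000 g ai/ha (187 l/ha) on sandy loam pots: pre-emerge one day after seeding, post-emerge at 2-3 leaf stage with 0.25% v/v non-ionic surfactant. Phytotoxicity was rated 14 days later on a 0 (no damage) to 100 (complete death) scale.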

[3] = tested on: common ragweed (Ambrosia artemisizfolia L., AMBEL); experiment: as above; details: rated 14 days after application, 0 = no damage, 100 = complete death
How it was run: as §1

[4] = tested on: green foxtail (Setaria viridis, SETVI); experiment: as above; details: rated 14 days after application, 0 = no damage, 100 = complete death
How it was run: as §1

[5] = tested on: ivyleaf morningglory (Ipomoea hederacea, IPOHE); experiment: as above; details: rated 14 days after application, 0 = no damage, 100 = complete death
How it was run: as §1

[6] = tested on: johnsongrass (Sorghum halepense, SORHA); experiment: as above; details: rated 14 days after application, 0 = no damage, 100 = complete death
How it was run: as §1

[7] = tested on: lambsquarters (Chenopodium album, CHEAL); experiment: as above; details: rated 14 days after application, 0 = no damage, 100 = complete death
How it was run: as §1

[8] = tested on: large crabgrass (Digitaria sanguinalis, DIGSA); experiment: as above; details: rated 14 days after application, 0 = no damage, 100 = complete death
How it was run: as §1

[9] = tested on: sicklepod (Cassia obtusifolia, CASOB); experiment: as above; details: rated 14 days after application, 0 = no damage, 100 = complete death
How it was run: as §1

[10] = tested on: velvetleaf (Abutilon theophrasti, ABUTH); experiment: as above; details: rated 14 days after application, 0 = no damage, 100 = complete death
How it was run: as §1

[11] = tested on: field corn (Zea mays L., var. Dekalb 535, CORN); experiment: Pre-emerge test, crop safety; details: rated 14 days after application, 0 = no damage, 100 = complete death
How it was run: (§2)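 Sandy loam pots; pre-emerge: sown 1 d pre-spray, surface-watered after, then bottom-watered. Post-emerge: sown 8–21 d before, 2–3 leaf stage, + 0.25% v/v NIS, bottom-watered. Acetone, 187 l/ha track spray, 15–1000 g ai/ha. 0–100 injury score, day 14.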

[12] = tested on: upland rice (Oryza sp., var. Tebonnet, RICE); experiment: Pre-emerge test, crop safety; details: rated 14 days after application, 0 = no damage, 100 = complete death
How it was run: as §2

[13] = tested on: barnyardgrass (Echinochloa crus-galli, ECHCG); experiment: Post-emerge test, greenhouse herbicide activity screening; details: post-emerge, 14 days after application, rating scale 0-100
How it was run: (§3)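 Rating: 0–100 visual injury, 14 DAA. Application: acetone, 187 l/ha, 15–1000 g ai/ha, flat-fan track sprayer with nozzle 40–45 cm above soil or canopy. Post-emerge runs used 0.25% v/v surfactant on 2–3 leaf plants.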

[14] = tested on: common ragweed (Ambrosia artemisizfolia L., AMBEL); experiment: as above; details: post-emerge, 14 days after application, rating scale 0-100
How it was run: as §3

[15] = tested on: ivyleaf morningglory (Ipomoea hederacea, IPOHE); experiment: as above; details: post-emerge, 14 days after application, rating scale 0-100
How it was run: as §3

[16] = tested on: johnsongrass (Sorghum halepense, SORHA); experiment: as above; details: post-emerge, 14 days after application, rating scale 0-100
How it was run: as §3

[17] = tested on: lambsquarters (Chenopodium album, CHEAL); experiment: as above; details: post-emerge, 14 days after application, rating scale 0-100
How it was run: as §3

[18] = tested on: large crabgrass (Digitaria sanguinalis, DIGSA); experiment: as above; details: post-emerge, 14 days after application, rating scale 0-100
How it was run: as §3

[19] = tested on: redroot pigweed (Amaranthus retroflexus, AMARE); experiment: as above; details: post-emerge, 14 days after application, rating scale 0-100
How it was run: as §3

[20] = tested on: sicklepod (Cassia obtusifolia, CASOB); experiment: as above; details: post-emerge, 14 days after application, rating scale 0-100
How it was run: as §3

[21] = tested on: velvetleaf (Abutilon theophrasti, ABUTH); experiment: as above; details: post-emerge, 14 days after application, rating scale 0-100
How it was run: as §3

[22] = tested on: field corn (Zea mays L., var. Dekalb 535, CORN); experiment: Post-emerge test, crop safety; details: post-emerge, 14 days after application, rating scale 0-100
How it was run: as §1

[23] = tested on: upland rice (Oryza sp., var. Tebonnet, RICE); experiment: Post-emerge test, crop safety; details: post-emerge, 14 days after application, rating scale 0-100
How it was run: as §1

COc1c(Cl)cc(F)c(-n2c(=O)cc(C(F)(F)F)n(C)c2=O)c1N(C(=O)c1ccc(C(F)(F)F)cc1)C(=O)c1ccc(C(F)(F)F)cc1 [2-34]
Pre-emerge Herbicidal Activity, phytotoxicity rating (0-100), AMARE ([1]; 63 g ai/ha): 100
Pre-emerge Herbicidal Activity, phytotoxicity rating (0-100), AMARE ([1]; 250 g ai/ha): 100
Pre-emerge Herbicidal Activity, phytotoxicity rating (0-100), ECHCG ([2]; 63 g ai/ha): 70
Pre-emerge Herbicidal Activity, phytotoxicity rating (0-100), ECHCG ([2]; 250 g ai/ha): 99
Pre-emerge Herbicidal Activity, phytotoxicity rating (0-100), AMBEL ([3]; 63 g ai/ha): 100
Pre-emerge Herbicidal Activity, phytotoxicity rating (0-100), AMBEL ([3]; 250 g ai/ha): 100
Pre-emerge Herbicidal Activity, phytotoxicity rating (0-100), SETVI ([4]; 63 g ai/ha): 95
Pre-emerge Herbicidal Activity, phytotoxicity rating (0-100), SETVI ([4]; 250 g ai/ha): 100
Pre-emerge Herbicidal Activity, phytotoxicity rating (0-100), IPOHE ([5]; 63 g ai/ha): 100
Pre-emerge Herbicidal Activity, phytotoxicity rating (0-100), IPOHE ([5]; 250 g ai/ha): 100
Pre-emerge Herbicidal Activity, phytotoxicity rating (0-100), SORHA ([6]; 63 g ai/ha): 20
Pre-emerge Herbicidal Activity, phytotoxicity rating (0-100), SORHA ([6]; 250 g ai/ha): 85
Pre-emerge Herbicidal Activity, phytotoxicity rating (0-100), CHEAL ([7]; 63 g ai/ha): 100
Pre-emerge Herbicidal Activity, phytotoxicity rating (0-100), CHEAL ([7]; 250 g ai/ha): 100
Pre-emerge Herbicidal Activity, phytotoxicity rating (0-100), DIGSA ([8]; 63 g ai/ha): 70
Pre-emerge Herbicidal Activity, phytotoxicity rating (0-100), DIGSA ([8]; 250 g ai/ha): 100
Pre-emerge Herbicidal Activity, phytotoxicity rating (0-100), CASOB ([9]; 63 g ai/ha): 100
Pre-emerge Herbicidal Activity, phytotoxicity rating (0-100), CASOB ([9]; 250 g ai/ha): 100
Pre-emerge Herbicidal Activity, phytotoxicity rating (0-100), ABUTH ([10]; 63 g ai/ha): 100
Pre-emerge Herbicidal Activity, phytotoxicity rating (0-100), ABUTH ([10]; 250 g ai/ha): 100
Pre-emerge phytotoxicity rating (0-100), crop damage, CORN ([11]; 63 g ai/ha): 25
Pre-emerge phytotoxicity rating (0-100), crop damage, CORN ([11]; 250 g ai/ha): 90
Pre-emerge phytotoxicity rating (0-100), crop damage, RICE ([12]; 63 g ai/ha): 40
Pre-emerge phytotoxicity rating (0-100), crop damage, RICE ([12]; 250 g ai/ha): 90
phytotoxicity rating ECHCG ([13]; 63 g ai/ha): 0
phytotoxicity rating ECHCG ([13]; 250 g ai/ha): 30
phytotoxicity rating AMBEL ([14]; 63 g ai/ha): 70
phytotoxicity rating AMBEL ([14]; 250 g ai/ha): 85
phytotoxicity rating IPOHE ([15]; 63 g ai/ha): 75
phytotoxicity rating IPOHE ([15]; 250 g ai/ha): 95
phytotoxicity rating SORHA ([16]; 63 g ai/ha): 40
phytotoxicity rating SORHA ([16]; 250 g ai/ha): 80
phytotoxicity rating CHEAL ([17]; 63 g ai/ha): 85
phytotoxicity rating CHEAL ([17]; 250 g ai/ha): 90
phytotoxicity rating DIGSA ([18]; 63 g ai/ha): 10
phytotoxicity rating DIGSA ([18]; 250 g ai/ha): 30
phytotoxicity rating AMARE ([19]; 63 g ai/ha): 95
phytotoxicity rating AMARE ([19]; 250 g ai/ha): 95
phytotoxicity rating CASOB ([20]; 63 g ai/ha): 100
phytotoxicity rating CASOB ([20]; 250 g ai/ha): 100
phytotoxicity rating ABUTH ([21]; 63 g ai/ha): 100
phytotoxicity rating ABUTH ([21]; 250 g ai/ha): 100
phytotoxicity rating CORN ([22]; 63 g ai/ha): 60
phytotoxicity rating CORN ([22]; 250 g ai/ha): 90
phytotoxicity rating RICE ([23]; 63 g ai/ha): 65
phytotoxicity rating RICE ([23]; 250 g ai/ha): 85
